The values that follow come from patent publication US11566056B2, “Peptide and use thereof for treatment of disease of brain and nervous system” (SYLUS CO., LTD, priority 2020, dated 2023).

Assay [1] relates to HT-22 cells. The assay can be described thus: cell viability under hypoxia-reoxygenation (H/R) conditions. In kind it is cell-based. More on the design: cell viability under hypoxia-reoxygenation conditions / cell viability under hypoxia-reoxygenation conditions, Average: unit not given here. As to conditions: for cell viability under hypoxia-reoxygenation conditions, Average: average of 3; for cell viability under hypoxia-reoxygenation conditions: individual replicate. Here is the method:
First, the degree of cell viability was confirmed. Specifically, HT-22 cells cultured on a 96-well plate or a 6-well plate for 24 hours were maintained under hypoxic condition for 18 hours in a sealed airtight container of Anaeropack (Mitsubishi Gas Company, Tokyo, Japan). The Anaeropack absorbs oxygen and generates carbon dioxide, thereby inducing a hypoxic environment. Next, reoxygenation was performed at 5% CO2 and 37° C. for 3 hours.
Cell viability was compared when treated with SY-1, SY-2 and SY-3 of H/R cells cultured under low oxygen conditions (Hypoxia) and later cultured under oxygen conditions (Reoxygenation).

The target of assay [2] is T1, Soluble mouse EPOR chimera protein (Mus musculus, UniProt P14753).
T1 construct: Soluble mouse EPOR chimera protein; purchased R&D Systems
T1 sequence (P14753 25-249 limits assumed): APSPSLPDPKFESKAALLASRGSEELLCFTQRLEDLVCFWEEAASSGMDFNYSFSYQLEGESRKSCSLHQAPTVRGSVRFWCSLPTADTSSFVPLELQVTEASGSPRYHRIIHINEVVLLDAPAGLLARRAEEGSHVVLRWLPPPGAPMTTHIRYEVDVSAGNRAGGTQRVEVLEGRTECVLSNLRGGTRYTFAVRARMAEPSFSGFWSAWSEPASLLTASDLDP
The assay can be described thus: surface plasmon resonance (SPR) binding to erythropoietin receptor. The settings on record: peptide 5, 2.5 and 1.25 μM. Here is the method:
The SPR technique uses an optical principle to measure the interaction between biomolecules in real time without a specific label, and is a system that analyzes the affinity and kinetics between two molecules, that is, Ka (association rate) and Kd (dissociation rate).
Specifically, the real-time SPR analysis was performed using Reichert SPR Biosensor SR 7500C equipment (Reichert Inc., NY, USA). Receptor mouse EPOR chimera protein (Soluble mouse EPOR chimera protein)(R&D Systems, Minneapolis, Minn., USA) was covalently bonded to a chip (BR-1005-39, Pharmacia Biosensor AB) coated with carboxy methylated dextran matrix by an amine coupling procedure using an amine coupling kit (BR-1000-50, GE Healthcare, USA) according to the manufacturer's manual. Peptides having concentrations of 5, 2.5 and 1.25 μM according to the present disclosure and scrambled peptides were tested by flowing at a flow rate of 5 μl/minute. In addition, the experiment was independently repeated to increase the accuracy. In addition, DMSO was flowed at 5 μl/minute to normalize the signal. After sufficiently inducing the binding of the peptide of an aspect to the receptor, regeneration was induced by injecting 20 μl/minute of 25 mM acetic acid into a sensor chip.
(In general: Surface plasmon resonance follows binding to a sensor surface in real time, without labels.)

Where “and” joins values, the source holds several entries; their conditions need not be identical. Identical values can stand only once. Ends that are not written are not given here.

Consider LQLHVLKAVAGLRTLTMIRRALA [SY-3], for which the results for the “cell viability under hypoxia-reoxygenation conditions, Average” value (shortened to “cell viability … Average”) in assay [1] (1 uM), in assay [1] (2.5 uM) and in assay [1] (5 uM) were 0.726, 0.735 and 0.727, respectively. For the same sequence, the “cell viability under hypoxia-reoxygenation conditions” value in assay [1] (1 uM) was 0.722 and 0.736 and 0.719; in assay [1] (2.5 uM) it was 0.739 and 0.741 and 0.724; in assay [1] (5 uM) it was 0.707 and 0.732 and 0.741. The “cell viability under H/R conditions (in words)” value in assay [1] (hypoxia 18 hours, reoxygenation 3 hours) is “the cell viability was the highest”. Further, the ka in assay [2] is recorded as 25.6240. Also, in assay [2], the kd is listed as 0.0554.
As to LQLHVLKAVSGLRTLTMIRRALG [SY-2], in assay [1] (1 uM), the “cell viability … Average” value was 0.671; the “cell viability under hypoxia-reoxygenation conditions” value was 0.658 and 0.673 and 0.682. Besides, in assay [1] (2.5 uM), the “cell viability … Average” value is on record as 0.676; the “cell viability under hypoxia-reoxygenation conditions” value was 0.671 and 0.667 and 0.689. Also, in assay [1] (5 uM), the “cell viability … Average” value amounted to 0.661; the “cell viability under hypoxia-reoxygenation conditions” value was 0.652 and 0.677 and 0.655. In assay [2], this sequence registered a ka of 32.5770 and a kd of 0.0506.
For LQLHVLKAVSGLRTLTTLLRALG [SY-1], in assay [1] (1 uM), the “cell viability … Average” value came out at 0.654; the “cell viability under hypoxia-reoxygenation conditions” value is 0.662 and 0.657 and 0.644. In addition, in assay [1] (2.5 uM), the “cell viability … Average” value was 0.655; the “cell viability under hypoxia-reoxygenation conditions” value is 0.649 and 0.663 and 0.652. Further, in assay [1] (5 uM), the “cell viability … Average” value is 0.647; the “cell viability under hypoxia-reoxygenation conditions” value was 0.648 and 0.653 and 0.641. In assay [2], this sequence gave a ka of 31.5970 and a kd of 0.0446.
